Test results taken from patent publication US11370769B2, “TRPC5 inhibitors and methods of using same” (BOARD OF REGENTS OF THE UNIVERSITY OF NEBRASKA, priority 2017, dated 2022).

Target: T1, TRPC6 channels (Rattus norvegicus, UniProt Q99N78)
T1 construct: Acutely isolated glomeruli were prepared as described above; from tissue; host or cells: acutely isolated glomeruli (podocytes) of AT1R Tg and WT rats
T1 sequence (Q99N78 1-930): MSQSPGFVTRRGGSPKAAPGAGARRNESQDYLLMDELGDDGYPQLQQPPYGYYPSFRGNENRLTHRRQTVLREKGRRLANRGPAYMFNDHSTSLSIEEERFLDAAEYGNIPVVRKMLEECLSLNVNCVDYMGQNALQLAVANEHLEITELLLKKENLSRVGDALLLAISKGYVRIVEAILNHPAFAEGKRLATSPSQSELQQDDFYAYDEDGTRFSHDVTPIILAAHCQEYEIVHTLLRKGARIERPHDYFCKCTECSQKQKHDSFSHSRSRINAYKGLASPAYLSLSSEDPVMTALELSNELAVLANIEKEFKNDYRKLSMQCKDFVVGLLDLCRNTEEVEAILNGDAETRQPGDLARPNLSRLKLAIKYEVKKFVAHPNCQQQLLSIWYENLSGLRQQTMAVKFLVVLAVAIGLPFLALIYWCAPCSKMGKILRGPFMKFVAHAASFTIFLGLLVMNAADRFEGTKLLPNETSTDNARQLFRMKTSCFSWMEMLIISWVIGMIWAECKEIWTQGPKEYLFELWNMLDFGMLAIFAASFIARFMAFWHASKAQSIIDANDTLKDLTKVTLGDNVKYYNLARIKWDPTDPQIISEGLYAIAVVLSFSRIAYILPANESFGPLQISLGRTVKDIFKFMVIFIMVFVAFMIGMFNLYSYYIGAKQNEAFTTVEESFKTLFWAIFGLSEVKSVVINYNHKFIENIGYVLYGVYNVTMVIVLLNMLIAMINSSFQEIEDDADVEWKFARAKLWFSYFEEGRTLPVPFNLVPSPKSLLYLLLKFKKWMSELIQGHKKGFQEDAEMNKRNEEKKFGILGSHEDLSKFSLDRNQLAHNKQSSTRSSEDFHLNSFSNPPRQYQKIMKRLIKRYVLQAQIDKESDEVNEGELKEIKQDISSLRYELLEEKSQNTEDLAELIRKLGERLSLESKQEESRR
Test: Glomerular inside-out single-channel recordings, OAG-induced conductances
Assay type: cell-based
Settings: glomeruli from age matched AT1R Tg rats and WT controls
Procedure: Acute glomeruli isolation and Ca^2+-imaging: WT and AT1R Tg littermates were killed and kidneys were quickly dissected and washed with ice-cold PBS. After isolation using the sieving technique as previously described (11), glomeruli were incubated with the Ca^2+ indicator Fura2-AM (1 μM; Invitrogen) at 37° C. for 15 min. The extracellular solution for Ca^2+-imaging contained (in mM) 140 NaCl, 5 KCl, 10 HEPES, 2 MgCl2, 2 CaCl2, 10 glucose, with pH7.4 adjusted with NaOH. Glomerular Ca^2+-imaging was performed using an inverted microscope (Olympus IX70) with a high-speed CCD camera (Hamamatsu Photonics). Images were taken and analyzed using the Metafluor software (Molecular Devices). It should be noted that Fura-2 is most often taken up by podocytes at the periphery of the isolated glomerulus, but the specificity of recordings in podocytes is best confirmed by patch clamp electrophysiology, as described below.
Glomerular single-channel recordings: Acutely isolated glomeruli were prepared as described above. Single-channel recordings were carried out using an Axopatch 200B and Digidata 1550A (Molecular Devices). Bath and pipette solutions for glomerular single-channel recording contained (in mM) 135 CH3SO3Na, 5 CsCl, 2 CaCl2, 1 MgCl2, 10 HEPES, and 10 glucose with pH7.4 adjusted with NaOH. […]

Cc1cc(N2CCCCC2)nc2ccccc12 [ML204, reference compound]
inhibition of OAG-induced conductances: no inhibition
